Values quoted from earlier work as cited in patent US20230068267A1, “PLANT EXTRACT COMPOSITION FOR THE TREATMENT OF CARDIOVASCULAR AND METABOLIC DISEASES” (Meda Pharma S.p.A., priority 2020, published 2023).

Assays:
HMG-CoA reductase = biological target: T1, HMG-CoA reductase (Homo sapiens, UniProt P04035); details: statin-like properties; Di Donna 2009
T1 sequence (P04035 1-888): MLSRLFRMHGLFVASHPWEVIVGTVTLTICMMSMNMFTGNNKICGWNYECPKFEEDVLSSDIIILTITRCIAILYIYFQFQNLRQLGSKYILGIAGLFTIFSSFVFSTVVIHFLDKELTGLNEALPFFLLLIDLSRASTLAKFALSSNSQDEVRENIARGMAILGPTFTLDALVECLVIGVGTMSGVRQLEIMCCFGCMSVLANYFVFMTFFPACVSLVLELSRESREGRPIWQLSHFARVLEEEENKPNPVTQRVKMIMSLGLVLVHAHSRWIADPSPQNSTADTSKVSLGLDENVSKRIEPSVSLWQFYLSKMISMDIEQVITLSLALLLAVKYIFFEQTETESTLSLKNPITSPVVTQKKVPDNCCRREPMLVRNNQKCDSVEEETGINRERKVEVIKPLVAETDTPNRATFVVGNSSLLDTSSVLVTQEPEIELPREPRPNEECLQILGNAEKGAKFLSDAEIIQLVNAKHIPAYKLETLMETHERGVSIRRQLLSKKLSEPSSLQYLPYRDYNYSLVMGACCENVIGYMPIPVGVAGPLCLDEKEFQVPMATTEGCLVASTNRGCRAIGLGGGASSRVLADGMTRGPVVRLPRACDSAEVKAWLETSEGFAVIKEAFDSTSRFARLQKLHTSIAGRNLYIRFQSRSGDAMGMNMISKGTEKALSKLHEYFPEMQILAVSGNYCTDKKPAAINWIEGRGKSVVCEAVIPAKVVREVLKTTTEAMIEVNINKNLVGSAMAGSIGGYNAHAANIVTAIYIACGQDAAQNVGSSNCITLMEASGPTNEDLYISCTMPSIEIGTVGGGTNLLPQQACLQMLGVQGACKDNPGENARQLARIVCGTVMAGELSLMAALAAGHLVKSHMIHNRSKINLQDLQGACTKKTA

LDL cholesterol = details: Yu et. al. 2005

inhibitory action upon HMG-CoA reductase (HMG-CoA reductase)	Compound	inhibition of the oxidation of LDL cholesterol (LDL cholesterol)
inhibitory action upon HMG-CoA reductase	COc1ccc([C@@H]2CC(=O)c3c(O)cc(O[C@H]4O[C@@H](COC(=O)C[C@@](C)(O)CC(=O)O)[C@H](O)[C@@H](O)[C@@H]4O[C@@H]4O[C@@H](C)[C@H](O)[C@@H](O)[C@@H]4O)cc3O2)cc1O [brutieridin]	
inhibitory action upon HMG-CoA reductase	C[C@@H]1O[C@@H](O[C@@H]2[C@@H](Oc3cc(O)c4c(c3)O[C@H](c3ccc(O)cc3)CC4=O)O[C@@H](COC(=O)C[C@@](C)(O)CC(=O)O)[C@H](O)[C@H]2O)[C@@H](O)[C@H](O)[C@H]1O [Melitidin]	
	Rutin	inhibit the oxidation of LDL cholesterol
